Measurements: ChEMBL document CHEMBL5579896, “Discovery of 2-Aryl-4-aminoquinazolin-Based LSD1 Inhibitors to Activate Immune Response in Gastric Cancer” (J Med Chem, 2024)
Calls of active or inactive are those of the source. The rule behind the calls is not given here.

What was measured:
[1] = test system: BGC-823; test: Cytotoxicity against human BGC-823 cells assessed as reduction in cell viability at 8 uM incubated for 5 days by SRB assay; format: toxicity, cell-based; details: bgc-823, 120 h, time 5 day
[2] = Drug uptake in ICR mouse plasma at 40 mg/kg, po; format: ADME, organism-based; details: in vivo
[3] = test system: BGC-823; test: Anticancer activity against LSD-1 knockout human BGC-823 cells cocultured with human monocytes assessed as increase in CD3/CD28 activated T-cell killing response at 2 to 8 uM incubated for 5 days by microscopic analysis; format: functional, cell-based; details: dose 2-8 µM, time 5.0 day
[4] = molecular target: T1, Amine oxidase [flavin-containing] B (Homo sapiens, UniProt P27338); test: Inhibition of MAO-B (unknown origin)
T1 sequence (P27338 whole entry): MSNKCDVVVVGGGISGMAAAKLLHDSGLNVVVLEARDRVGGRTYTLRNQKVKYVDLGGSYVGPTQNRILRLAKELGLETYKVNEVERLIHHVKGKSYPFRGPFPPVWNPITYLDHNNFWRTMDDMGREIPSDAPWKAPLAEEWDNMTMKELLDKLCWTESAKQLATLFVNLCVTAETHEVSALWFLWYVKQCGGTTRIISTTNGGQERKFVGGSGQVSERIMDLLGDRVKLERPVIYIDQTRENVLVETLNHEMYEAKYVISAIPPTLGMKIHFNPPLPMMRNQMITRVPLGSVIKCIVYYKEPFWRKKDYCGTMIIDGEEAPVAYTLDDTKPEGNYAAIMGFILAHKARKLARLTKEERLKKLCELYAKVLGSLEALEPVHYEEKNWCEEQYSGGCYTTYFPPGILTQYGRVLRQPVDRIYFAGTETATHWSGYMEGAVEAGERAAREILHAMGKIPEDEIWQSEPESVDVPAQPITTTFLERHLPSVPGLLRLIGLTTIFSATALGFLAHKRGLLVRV

[5] = test system: MFC; test: Antitumor activity against MFC cells implanted in mouse assessed as reduction in tumor size at 10 to 40 mg/kg/day, po administered daily for 2 weeks and measured every 2 days; format: functional, organism-based; details: dose 10-40 mg/kg/day
[6] = molecular target: T2, Lysine-specific histone demethylase 2 (Homo sapiens, UniProt Q8NB78); test: Inhibition of LSD2 (unknown origin)
T2 sequence (Q8NB78 whole entry): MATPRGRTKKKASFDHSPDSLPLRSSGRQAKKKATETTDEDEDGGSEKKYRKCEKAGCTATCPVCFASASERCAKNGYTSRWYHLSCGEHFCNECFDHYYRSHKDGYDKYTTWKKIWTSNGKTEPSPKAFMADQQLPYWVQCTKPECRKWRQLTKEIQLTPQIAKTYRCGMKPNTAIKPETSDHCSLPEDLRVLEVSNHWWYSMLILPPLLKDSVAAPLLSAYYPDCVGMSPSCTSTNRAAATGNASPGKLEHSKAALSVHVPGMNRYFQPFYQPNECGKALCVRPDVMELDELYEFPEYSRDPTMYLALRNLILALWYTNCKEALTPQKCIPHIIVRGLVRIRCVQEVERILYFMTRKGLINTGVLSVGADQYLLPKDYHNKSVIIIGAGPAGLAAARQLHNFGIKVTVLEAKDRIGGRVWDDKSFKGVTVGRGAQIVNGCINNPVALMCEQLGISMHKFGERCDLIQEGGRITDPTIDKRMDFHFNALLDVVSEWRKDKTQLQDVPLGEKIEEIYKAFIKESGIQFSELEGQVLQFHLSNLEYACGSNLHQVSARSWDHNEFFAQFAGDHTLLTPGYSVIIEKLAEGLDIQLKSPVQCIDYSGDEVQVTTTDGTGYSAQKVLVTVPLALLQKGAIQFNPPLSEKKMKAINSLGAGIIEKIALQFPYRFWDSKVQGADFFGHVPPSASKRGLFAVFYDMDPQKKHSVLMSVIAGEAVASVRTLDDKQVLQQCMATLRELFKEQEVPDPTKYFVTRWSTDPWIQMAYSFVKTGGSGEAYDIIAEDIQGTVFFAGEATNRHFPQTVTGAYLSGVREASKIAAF

[7] = molecular target: Programmed cell death protein 1/Programmed cell death 1 ligand 1 (Homo sapiens) (UniProt Q15116+Q9NZQ7); test: Inhibition of PD-1 to PD-L1 protein-protein interaction in human BGC-823 cells incubated for 5 days by DAPI staining based confocal microscopic analysis; format: cell-based; details: dose 2-8 µM, time 5.0 day
[8] = molecular target: T3, MAO-B (Amine oxidase [flavin-containing] B) (Homo sapiens, UniProt P27338); test: Inhibition of MAO-B (unknown origin) at 10 uM relative to control
T3 sequence (P27338 whole entry): T1 sequence (P27338 whole entry)

[9] = AUC in ICR mouse at 40 mg/kg, po measured upto 24 hrs by LC-MS/MS analysis; format: ADME, organism-based; details: in vivo
[10] = test system: BGC-823; test: Effect on H3K4me2 methylation in LSD1 knockout human BGC-823 cells at 2 to 8 uM by Western blotting analysis; format: functional, cell-based; details: dose 2-8 µM
[11] = test system: MFC; test: Antitumor activity against MFC cells implanted in mouse assessed as reduction in tumor weight at 10 to 40 mg/kg/day, po administered daily for 2 weeks and measured every 2 days; format: functional, organism-based; details: dose 10-40 mg/kg/day
[12] = Toxicity in mouse implanted with MFC assessed as liver damage at 10 to 40 mg/kg/day, po administered daily for 2 weeks and measured every 2 days by H and E staining based assay; format: organism-based; details: in vivo, 336 h, dose 10-40 mg/kg/day
[13] = test system: BGC-823; test: Downregulation of PD-L1 expression in human BGC-823 cells at 2 to 8 uM by Western blotting analysis; format: functional, cell-based; details: dose 2-8 µM, TDE = time-dependent effect
[14] = molecular target: T4, MAO-A (Amine oxidase [flavin-containing] A) (Homo sapiens, UniProt P21397); test: Inhibition of MAO-A (unknown origin) at 10 uM relative to control
T4 sequence (P21397 whole entry): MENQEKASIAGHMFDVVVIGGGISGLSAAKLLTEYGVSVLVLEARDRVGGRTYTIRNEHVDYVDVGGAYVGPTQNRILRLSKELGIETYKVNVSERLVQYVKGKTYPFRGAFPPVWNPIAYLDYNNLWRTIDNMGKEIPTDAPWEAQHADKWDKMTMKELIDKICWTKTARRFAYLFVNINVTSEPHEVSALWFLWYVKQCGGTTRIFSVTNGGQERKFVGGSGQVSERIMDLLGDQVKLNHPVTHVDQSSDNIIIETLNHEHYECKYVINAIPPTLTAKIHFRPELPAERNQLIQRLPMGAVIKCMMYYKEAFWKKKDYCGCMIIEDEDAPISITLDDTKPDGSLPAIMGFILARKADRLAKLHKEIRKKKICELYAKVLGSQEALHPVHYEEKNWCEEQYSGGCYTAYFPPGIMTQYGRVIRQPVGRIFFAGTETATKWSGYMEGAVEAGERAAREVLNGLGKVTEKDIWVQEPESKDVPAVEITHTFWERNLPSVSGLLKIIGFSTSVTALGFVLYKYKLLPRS

[15] = molecular target: T5, Histone-lysine N-methyltransferase EHMT2 (Homo sapiens) (UniProt Q96KQ7); test: Inhibition of G9a (unknown origin)
T5 sequence (whole entry): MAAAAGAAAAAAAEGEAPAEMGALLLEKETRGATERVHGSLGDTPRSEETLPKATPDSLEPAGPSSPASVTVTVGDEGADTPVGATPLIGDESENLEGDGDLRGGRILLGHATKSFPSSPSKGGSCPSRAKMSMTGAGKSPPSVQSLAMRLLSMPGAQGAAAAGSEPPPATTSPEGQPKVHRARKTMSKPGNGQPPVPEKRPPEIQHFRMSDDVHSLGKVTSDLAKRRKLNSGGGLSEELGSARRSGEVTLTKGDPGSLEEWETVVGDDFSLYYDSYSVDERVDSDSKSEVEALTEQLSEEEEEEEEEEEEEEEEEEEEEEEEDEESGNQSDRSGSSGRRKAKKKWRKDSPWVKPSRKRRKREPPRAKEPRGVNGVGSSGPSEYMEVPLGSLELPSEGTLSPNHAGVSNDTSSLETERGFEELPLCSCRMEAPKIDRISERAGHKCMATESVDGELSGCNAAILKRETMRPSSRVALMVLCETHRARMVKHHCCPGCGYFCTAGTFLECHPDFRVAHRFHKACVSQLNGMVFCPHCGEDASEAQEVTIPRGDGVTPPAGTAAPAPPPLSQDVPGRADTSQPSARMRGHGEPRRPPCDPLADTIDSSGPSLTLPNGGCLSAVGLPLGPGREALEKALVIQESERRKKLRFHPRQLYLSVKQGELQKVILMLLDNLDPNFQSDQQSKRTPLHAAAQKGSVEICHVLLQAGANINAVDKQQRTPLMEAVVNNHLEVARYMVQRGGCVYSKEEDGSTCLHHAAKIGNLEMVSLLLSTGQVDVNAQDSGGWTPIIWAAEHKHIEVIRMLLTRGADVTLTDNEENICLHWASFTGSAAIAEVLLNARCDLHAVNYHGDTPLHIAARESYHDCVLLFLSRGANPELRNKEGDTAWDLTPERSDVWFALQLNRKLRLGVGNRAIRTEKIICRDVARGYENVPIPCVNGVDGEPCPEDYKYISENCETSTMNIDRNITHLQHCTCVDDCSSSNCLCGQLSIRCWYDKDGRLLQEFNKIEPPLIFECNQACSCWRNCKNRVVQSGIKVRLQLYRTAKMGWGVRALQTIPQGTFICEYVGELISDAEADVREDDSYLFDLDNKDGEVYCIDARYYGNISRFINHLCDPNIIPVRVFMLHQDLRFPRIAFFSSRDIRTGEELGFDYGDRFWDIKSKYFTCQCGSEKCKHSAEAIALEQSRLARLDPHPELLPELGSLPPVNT

[16] = test system: BGC-823; test: Effect on H3K4me3 methylation in LSD1 knockout human BGC-823 cells at 2 to 8 uM by Western blotting analysis; format: functional, cell-based; details: dose 2-8 µM
[17] = test system: MFC; test: Downregulation of PD-L1 expression in MFC cells implanted in mouse at 10 to 40 mg/kg/day, po administered daily for 2 weeks and measured every 2 days by Western blotting analysis; format: functional, organism-based; details: dose 10-40 mg/kg/day
[18] = test system: BGC-823; test: Effect on LSD1 expression in human BGC-823 cells by Western blotting analysis; format: functional, cell-based
[19] = test system: MFC; test: Downregulation of PD-L1 expression in MFC cells incubated for 5 days by Western blotting analysis; format: functional, cell-based; details: Mus musculus, dose 2-8 µM, time 5.0 day

Drug uptake [2]: Active
IC50 [4]: > 10 µM
IC50 [6]: > 10 µM
inhibition at 10 µM [8]: < 10%
AUC at 24 h [9]: 2250 ng·h/mL
inhibition at 10 µM [14]: < 10%
inhibition [15]: inactive
Structure (SMILES): CCN(CC)c1ccc(Nc2nc(-c3ccc(S(C)(=O)=O)cc3)nc3ccccc23)cc1
Activity [1]: Non-Toxic
Activity [3]: inactive
Activity [5]: Active
inhibition [7]: Dose-Dependent Effect
Activity [10]: inactive
Activity [11]: Active
Activity [12]: Non-Toxic
Activity [13]: Tde
Activity [16]: inactive
Activity [17]: Active
Activity [18]: inactive
Activity [19]: Dose-Dependent Effect
